Where a SMILES comes first, the peptide text is derived from it. Where no end group is shown, it is not given here. The star is where a group is joined. X1 = CN1/C(=C/C=C/C=C/C2=[N+](CCCCCC(=O)*)c3ccc4ccccc4c3C2(C)C)C(C)(C)c2c1ccc1ccccc21
Legend:
CCD841 cells = assay: Alamar blue growth assay, CCD841 cells; format: cell-based, human; conditions: 48 hours, 37 °C; HGF 25 ng/mL or QQT*-Cy5.5 5 or 100 μM; 3 independent experiments
Method: (§1) An alamar blue assay was performed using HT29 and CCD841 cells. After culturing in serum free media overnight, ~3 × 10^3 cells were seeded per well in serum free media in 96 well plates at a final volume of 100 µL per well. […] Alamar blue reagent (10 µL) was added in amounts equal to 10% of the volume in the well, and incubated at 37 °C for 4 hours. Fluorescence with excitation at λex = 530–560 nm, and emission at λex = 590 nm was measured.

cMet [1] = target: T1, cMet (Homo sapiens, UniProt P08581); assay: Competition of unlabeled peptide for QQT*-Cy5.5 binding to HT29 cells; conditions: unlabeled peptide 0, 25, 50, 100, 200 and 400 μM, then 5 μM Cy5.5-labeled peptide, 3 replicate slides, 5 cells per slide
T1 construct: endogenous in cells; host or cells: HT29 human colorectal cancer cells (ATCC)
T1 sequence (P08581 25-1390): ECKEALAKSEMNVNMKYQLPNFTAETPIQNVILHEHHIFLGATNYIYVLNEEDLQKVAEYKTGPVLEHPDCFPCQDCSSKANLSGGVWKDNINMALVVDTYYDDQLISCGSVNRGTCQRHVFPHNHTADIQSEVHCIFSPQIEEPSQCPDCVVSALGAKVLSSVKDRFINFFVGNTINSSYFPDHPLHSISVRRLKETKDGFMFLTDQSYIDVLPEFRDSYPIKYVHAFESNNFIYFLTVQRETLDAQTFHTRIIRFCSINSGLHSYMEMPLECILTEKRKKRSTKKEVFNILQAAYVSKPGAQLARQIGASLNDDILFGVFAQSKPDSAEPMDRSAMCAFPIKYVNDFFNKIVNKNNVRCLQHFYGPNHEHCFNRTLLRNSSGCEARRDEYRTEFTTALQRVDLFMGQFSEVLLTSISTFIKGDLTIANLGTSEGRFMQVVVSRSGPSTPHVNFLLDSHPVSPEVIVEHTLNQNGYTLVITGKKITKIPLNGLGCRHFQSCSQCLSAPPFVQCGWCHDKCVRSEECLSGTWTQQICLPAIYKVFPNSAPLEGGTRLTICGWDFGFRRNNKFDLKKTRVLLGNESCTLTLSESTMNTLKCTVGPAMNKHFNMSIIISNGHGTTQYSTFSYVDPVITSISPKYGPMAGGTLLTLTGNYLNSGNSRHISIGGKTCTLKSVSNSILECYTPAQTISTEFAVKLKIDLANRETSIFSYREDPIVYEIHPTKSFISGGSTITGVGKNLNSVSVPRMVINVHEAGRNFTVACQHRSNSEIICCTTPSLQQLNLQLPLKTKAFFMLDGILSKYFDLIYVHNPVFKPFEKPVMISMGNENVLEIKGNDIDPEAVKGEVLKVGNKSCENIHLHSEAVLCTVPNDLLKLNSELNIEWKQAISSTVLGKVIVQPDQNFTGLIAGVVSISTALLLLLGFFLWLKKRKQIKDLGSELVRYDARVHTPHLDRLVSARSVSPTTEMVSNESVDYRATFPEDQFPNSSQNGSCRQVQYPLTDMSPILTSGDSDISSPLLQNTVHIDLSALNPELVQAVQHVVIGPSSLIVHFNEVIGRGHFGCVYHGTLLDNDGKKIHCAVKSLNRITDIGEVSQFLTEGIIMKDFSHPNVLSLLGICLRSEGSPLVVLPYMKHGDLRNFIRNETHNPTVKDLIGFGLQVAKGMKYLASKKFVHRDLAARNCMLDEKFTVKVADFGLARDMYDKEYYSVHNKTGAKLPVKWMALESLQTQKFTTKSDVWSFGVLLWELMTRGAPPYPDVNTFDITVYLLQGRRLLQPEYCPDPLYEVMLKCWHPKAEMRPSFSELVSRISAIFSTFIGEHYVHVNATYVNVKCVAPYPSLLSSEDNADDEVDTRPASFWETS
Method: Unlabeled peptides at 0, 25, 50, 100, 200 and 400 μM were first added and then incubated with 5 μM of Cy5.5-labeled peptides. […] The cells were fixed with 4% PFA, and mounted with ProLong Gold reagent containing DAPI.

[2] = system: vascular endothelial growth factor A (VEGFA); conditions: IRDye800-labeled, intravenous, n = 17 FAP patients, cited from earlier work
Text: Large molecules, such as antibodies, that have high target affinity are also being utilized for CRC imaging. Bevacizumab is a monoclonal antibody that has been repurposed for imaging by labeling with IRDye800 to detect overexpressed vascular endothelial growth factor A (VEGFA)[46]. This imaging agent was intravenously administered in a total of n = 17 patients with familial adenomatous polyposis (FAP), and n = 51 adenomas were detected. A median T/B ratio = 1.84 was achieved using a dose of 25 mg. Small adenomas with dimensions< 3 mm were detected. Antibodies have long circulation times that l ...

mouse cMet-ECD = assay: Pull-down assay with mouse cMet-ECD; format: binding; conditions: peptide immobilized on EHS beads; Western blot; by comparison with TLQ*
Method: Interactions between peptide and mouse cMet were evaluated using a pull-down assay. Peptides were immobilized on EHS active beads (17-0906-01, GE), and incubated with purified mouse cMet-ECD protein (50622-M08H, Sino Biological). After washing, bound proteins were detected by Western blot.

p-AKT = assay: Western blot of p-AKT in HT29 cells; format: cell-based, human; conditions: HT29, serum-starved; HGF 25 ng/mL or QQT*-Cy5.5 5 or 100 μM; 10, 30, 120 min
Method: (§2) Peptides are added at concentrations of 5 and 100 μM for 10, 30, and 120 min. Anti-cMet antibody (#8198, Cell Signaling), phospho-cMet (Tyr1234/1235) antibody (#3077, Cell Signaling), anti-AKT (#4691, Cell Signaling), anti-phospho-AKT (#9271, Cell Signaling), anti-ERK1/2 (#ab17942, Abcam,), anti-phospho-ERK1/2 (#ab50011, Abcam), and anti-tubulin (#32-2600, Invitrogen) were used per manufacturer’s instructions.

p-ERK1/2 = assay: Western blot of p-ERK1/2 in HT29 cells; format: cell-based, human; conditions: HT29, serum-starved; HGF 25 ng/mL or QQT*-Cy5.5 5 or 100 μM; 10, 30, 120 min
Method: as §2

p-cMet = assay: Western blot of p-cMet in HT29 cells; format: cell-based, human; conditions: HT29, serum-starved; HGF 25 ng/mL or QQT*-Cy5.5 5 or 100 μM; 10, 30, 120 min
Method: as §2

HT29 cells = assay: Alamar blue growth assay, HT29 cells; format: cell-based, human; conditions: 48 hours, 37 °C; HGF 25 ng/mL or QQT*-Cy5.5 5 or 100 μM; 3 independent experiments
Method: as §1

cMet [3] = target: T1, cMet; assay: Confocal microscopy of binding to HT29 cells with siRNA knockdown of cMet
Method: (§3) The cells were blocked with 1X PBS plus 2% BSA for 1 hour at 4 °C, and were incubated with 5 μM of peptide for 10 min at room temperature (RT) in the dark, washed 3×, and fixed with 4% PFA for 5 min, washed with 1X PBS, and then mounted on glass slides with ProLong Gold reagent containing DAPI (Invitrogen). A 1:3000 dilution of primary monoclonal rabbit anti-cMet antibody (#8198, Cell Signaling Technology) was incubated with the cells in vitro as a positive control. Afterwards, the cells were incubated with a 1:500 dilution of AF488-labeled secondary goat ant-rabbit immunoglobulin G antibody (#A-11029, Life Technologies), and then mounted on glass slides with ProLong Gold reagent containing DAPI. Confocal fluorescence images were collected using a 63X oil-immersion objective (Leica SP5 Inverted 2-Photon FLIM confocal). Fluorescence intensities were quantified using custom Matlab software (Mathworks).
Expression of cMet by HT29 cells was knocked down using siRNA (siRNA1, SASI_Hs01_00133002, Sigma). MISSION® siRNA Universal Negative Control (SIC001, Sigma) was used for control. Cells were transfected with Lipofectamine 2000 (11668027, Invitrogen) per manufacturer instructions, and incubated with 5 μM of peptide for 5 min. A 1:3000 dilution of primary monoclonal rabbit anti-cMet antibody (Cell Signaling Technology, #8198) was used for positive control.

cMet [4] = assay: Confocal microscopy of binding to S114 (cMet+) versus NIH3T3 (cMet-) cells; design: species or system mouse
Method: Human HT29, SW480, CCD841 colorectal cancer cells and mouse NIH 3T3 embryonic fibroblast cells were obtained from the ATCC. S114 cells (NIH 3T3 cells transformed to express cMet) were provided by courtesy of G Vande Woude (Van Andel Institute). McCoy’s 5A Medium (Gibco) was used for HT29 cells. Dulbecco’s Modified Eagle Medium (Gibco) were used for SW480, NIH3T3, and S114 cells. Eagle’s Minimum Essential Medium (Lonza) was used for CCD841. All cells were cultured at 37 °C in 5% CO2, and supplemented with 10% fetal bovine serum. Reagents for peptide synthesis were obtained from Anaspec (Anaspec) and AAPPTEC (AAPPTEC) at the highest available grade (>99% purity), and were used without further purification. Solvents and other chemical reagents were purchased (Sigma-Aldrich) unless stated otherwise.
as §3

cMet [5] = assay: In vivo fluorescence endoscopy of colonic adenomas in CPC;Apc mice; design: species or system mouse; conditions: intra-rectal 100 μM, 1.5 mL, control peptide 3 days later
Method: CPC;Apc mice were used for in vivo imaging. This mouse was genetically engineered to sporadically delete an adenomatous polyposis coli (APC) allele under control of a Cdx2 promoter (CDX2P-9.5NLS-Cre) to spontaneously form either flat or polypoid adenomas in the distal colon. Prior to imaging, the mice were fasted for 4–6 hours. Anesthesia was induced and maintained via a nose cone with inhaled isoflurane mixed with oxygen at concentrations of 2–4% at a flow rate of 0.5 L/min. A rigid small animal endoscope (Karl Storz Veterinary Endoscopy) was inserted into the rectum. White-light illumination was used first to identify the presence of adenomas. Peptides (100 μM, 1.5 mL) were delivered intra-rectally through the instrument channel. After 5 min for incubation, the colon was rinsed with warm tap water 3X to remove stool and debris prior to image collection. After 3 days for the signal from the target peptide to clear, the same mice were imaged using the control peptide. A ratio of the fluorescence and reflectance images was determined to correct for differences in distance and geometry over the image field-of-view (FOV)[33]. […] The mean fluorescence intensity was used to calculate the target-to-background (T/B) ratios. Images were processed and analyzed using custom software in Matlab (Mathworks)[34].

cMet [6] = target: T1, cMet; assay: Confocal microscopy of binding to HT29 (cMet+) versus SW480 (cMet-) CRC cells
Method: as §3

[7] = target: T2, cMet on human HT29 CRC cells (human (endogenous in HT29), UniProt P08581 25-1390); assay: flow cytometry on cells; HT29 cells incubated with peptide at 0-200 nM for 1 hour at 4 °C; apparent dissociation constant by nonlinear regression; conditions: one partner purified
T2 construct: cMet, transmembrane tyrosine kinase receptor (hepatocyte growth factor receptor), human; Alpha and beta chains are cut from one precursor; written as one chain; also called HT29 cells (cMet+); source: endogenous, on HT29 cells
T2 sequence (P08581 25-1390): as above

[8] = target: T2, cMet on human HT29 CRC cells; assay: immunostaining of cells or tissue; confocal fluorescence microscopy of cells incubated with 5 μM Cy5.5-labeled peptide (5-10 min, RT), washed, fixed with 4% PFA; HT29 transfected with siCL or sicMet; HT29 versus SW480; S114 versus NIH3T3; conditions: one partner purified
[9] = 6 replicate slides per condition, 10 cells per slide

Molecule: CC(C)C[C@H](NC(=O)[C@H](CO)NC(=O)[C@H](Cc1c[nH]c2ccccc12)NC(=O)[C@H](CC(N)=O)NC(=O)[C@@H](NC(=O)[C@H](CCC(N)=O)NC(=O)[C@@H](N)CCC(N)=O)[C@@H](C)O)C(=O)NCC(=O)NCC(=O)NCC(=O)N[C@@H](CO)C(=O)N[C@@H](CCCCNC(=O)CCCCC[N+]1=C(/C=C/C=C/C=C2/N(C)c3ccc4ccccc4c3C2(C)C)C(C)(C)c2c1ccc1ccccc21)C(N)=O [QQT*-Cy5.5] (H-QQTNWSLGGGSK(X1)-NH2)
- Growth of CCD841 normal colon cells (CCD841 cells): no effect on growth

Molecule: TLQWNQS [TLQ*, unlabeled control peptide TLQ*]
- Competition: fluorescence intensity of QQT*-Cy5.5 binding with increasing unlabeled peptide (cMet [1]): not with TLQ*

Molecule: Bevacizumab: monoclonal antibody repurposed for imaging by labeling with IRDye800 to detect overexpressed VEGFA
- Median T/B ratio ([2]; 25 mg): 1.84
- Dimensions of small adenomas detected [2]: < 3 mm
- Number of adenomas detected [2]: 51

Molecule: QQTNWSL [QQT*]
- Pull-down band for binding to mouse cMet-ECD (mouse cMet-ECD): strong band
- Competition: fluorescence intensity of QQT*-Cy5.5 binding with increasing unlabeled peptide (cMet [1]): decreased significantly

Molecule: HGF: recombinant human hepatocyte growth factor (HGF, 294-HG-005, R&D), a known ligand for cMet
- Phosphorylation of downstream AKT (p-AKT) (p-AKT): strong phosphorylation activity
- Phosphorylation of downstream ERK1/2 (p-ERK1/2) (p-ERK1/2): strong phosphorylation activity
- Phosphorylation of cMet (p-cMet) (p-cMet): strong phosphorylation activity
- Growth of HT29 cells (HT29 cells): increased growth
- Growth of CCD841 normal colon cells (CCD841 cells): not (C) CCD841 cells

Molecule: TLQWNQS [TLQ*-Cy5.5]
- Change in fluorescence intensity, siCL versus sicMet (in words) (cMet [3]; HT29, ANOVA on log-transformed data, 6 replicate slides per condition): non-significant decrease
- Binding to surface of HT29 cells transfected with siCL (control) (cMet [3]; HT29 siCL, peptide 5 μM, antibody 1:3000, confocal fluorescence): minimal binding
- Binding to HT29 cells transfected with sicMet (cMet knockdown) (cMet [3]; HT29 sicMet, peptide 5 μM, 5 min, antibody 1:3000, confocal fluorescence): little binding
- Change in mean intensity, S114 versus NIH3T3 (in words) (cMet [4]; [9]): non-significant increase
- Binding to NIH3T3 cells (cMet-) (cMet [4]; NIH3T3, confocal, peptide 5 μM 10 min RT, antibody 1:3000): nominal binding
- Binding to surface of S114 cells (cMet+) (cMet [4]; S114, confocal, peptide 5 μM 10 min RT, antibody 1:3000): minimal binding
- Fluorescence from representative polyp (cMet [5]): minimal signal
- Fluorescence from representative flat lesion (cMet [5]; same lesion): minimal signal
- Change in mean intensity, HT29 versus SW480 (in words) (cMet [6]; [9]): non-significant decrease
- Binding to surface of HT29 cells (cMet+) (cMet [6]; HT29, confocal, peptide 5 μM 10 min RT, antibody 1:3000): minimal binding
- Binding to SW480 cells (cMet-) (cMet [6]; SW480, confocal, peptide 5 μM 10 min RT, antibody 1:3000): minimal binding

B1: QQT*-Cy5.5 (peptide)
peptide: QQTNWSLGGGSK-{Cy5.5}
modifications: not fully specified
notes: heptapeptide selected by phage display (Ph.D.-7 library) against the extra-cellular domain of cMet; linker between the peptide and Cy5.5; also called QQTNWSL; cMet peptide; source: synthetic peptide (Fmoc solid-phase synthesis, purified with HPLC)
- Kd [7]: 57 nM
- fold change of fluorescence intensity against TLQ*-Cy5.5 [8]: 8.1 fold
- fold change of fluorescence intensity, siCL versus sicMet transfected cells [8]: 2.9 fold
